# Data published in ChEMBL document CHEMBL3861981 (J Med Chem, 2016).
# Columns and labels:
# [1] = Cardiotoxicity in anesthetized rabbit assessed as prolongation of QTcv interval at 30 mg/kg, iv administered as 10 mins infusion by electrophysiology assay; format: toxicity, organism-based, Oryctolagus cuniculus; settings: in vivo
# [2] = Cardiotoxicity in dog assessed as effect on sinoatrial node recovery time at 30 to 100 mg/kg administered as single dose by electrophysiology assay; format: toxicity, organism-based, Canis lupus familiaris; settings: in vivo
# [3] = Inhibition of recombinant full length HCV genotype 3a S52 NS3/4A protease preincubated for 30 mins followed by substrate addition measured by FRET assay; design: species or system Hepatitis C virus S52
# [4] = Half life in human liver microsomes; format: ADME
# [5] = Cardiotoxicity in dog assessed as effect on PR interval at 30 to 100 mg/kg administered as single dose by electrophysiology assay; format: toxicity, organism-based, Canis lupus familiaris; settings: in vivo
# [6] = Oral bioavailability in Beagle dog plasma at 3 mg/kg administered via gavage measured up to 24 hrs post dose by LC/MS/MS analysis; format: ADME, organism-based, Canis lupus familiaris; settings: beagle, plasma
# [7] = Plasma concentration in rabbit at 30 mg/kg, iv administered as 10 mins infusion measured after 60 mins; format: ADME, organism-based, Oryctolagus cuniculus
# Salmonella typhimurium = assay: Genotoxicity in Salmonella typhimurium in presence of S9 fraction by Ames test; format: toxicity, organism-based; settings: salmonella enterica subsp. enterica serovar typhimurium
# [8] = Inhibition of recombinant full length HCV genotype 1a H77 NS3/4A protease preincubated for 30 mins followed by substrate addition measured by FRET assay; design: species or system Hepatitis C virus (isolate H77)
# [9] = Half life in cynomolgus monkey plasma at 3 mg/kg, iv administered as 5 mins infusion by LC/MS/MS analysis; format: ADME, organism-based, Macaca fascicularis
# [10] = AUC in cynomolgus monkey plasma at 10 mg/kg administered via oral gavage measured up to 24 hrs post dose by LC/MS/MS analysis; format: ADME, organism-based, Macaca fascicularis; design: dose 10 mg/kg, time < 24 hr, route oral; settings: plasma
# [11] = Toxicity in cynomolgus monkey assessed as gastrointestinal irritation at 10 mg/kg, po administered through gavage; format: organism-based, Macaca fascicularis; settings: in vivo
# [12] = Half life in Beagle dog plasma at 1 mg/kg, iv administered as 5 mins infusion by LC/MS/MS analysis; format: ADME, organism-based, Canis lupus familiaris
# [13] = Cardiotoxicity in rabbit heart assessed as change in heart rate at 10 uM perfused for 60 mins measured every 10 mins during perfusion by electrophysiology method relative to control; format: toxicity, tissue-based, Oryctolagus cuniculus; settings: 1 h
# [14] = Cytotoxicity against human HepG2 cells assessed as decrease in cell viability
# [15] = Inhibition of recombinant full length HCV genotype 4a ED43 NS3 protease in genotype 1b con1 replicon cells by luciferase reporter gene assay; settings: Hepatitis C virus
# Rattus norvegicus = assay: Toxicity in rat at 30 to 300 mg/kg administered as single dose; format: organism-based; settings: in vivo
# [16] = Inhibition of recombinant full length HCV genotype 2a HC-J6 NS3/4A protease preincubated for 30 mins followed by substrate addition measured by FRET assay; design: species or system Hepatitis C virus subtype 2a
# [17] = Half life in cannulated Sprague-Dawley rat plasma at 5 mg/kg, iv administered as 10 mins infusion by LC/MS/MS analysis; format: ADME, organism-based
# [18] = Inhibition of recombinant full length HCV genotype 6a HK-6A NS3/4A protease preincubated for 30 mins followed by substrate addition measured by FRET assay; design: species or system Hepatitis C virus subtype 6a
# [19] = Oral bioavailability in cynomolgus monkey plasma at 10 mg/kg administered via gavage measured up to 24 hrs post dose by LC/MS/MS analysis; format: ADME, organism-based, Macaca fascicularis; settings: plasma
# [20] = Inhibition of recombinant full length HCV genotype 1b J4L6S NS3/4A protease preincubated for 30 mins followed by substrate addition measured by FRET assay; design: species or system Hepatitis C virus subtype 1b
# Hepatitis C virus [21] = assay: Antiviral activity against HCV genotype 2a JHF-1 in HCV replicon cells assessed as reduction in viral RNA replication by luciferase reporter gene assay; settings: genotype 2a JFH-1
# [22] = Clearance in cynomolgus monkey plasma at 3 mg/kg, iv administered as 5 mins infusion measured up to 24 hrs post dose by LC/MS/MS analysis; format: ADME, organism-based, Macaca fascicularis
# [23] = Cardiotoxicity in rabbit heart assessed as change in sinoatrial node recovery time at 10 uM perfused for 60 mins measured every 10 mins during perfusion by electrophysiology method relative to control; format: toxicity, tissue-based, Oryctolagus cuniculus; settings: 1 h
# Homo sapiens = species on record: Homo sapiens; assay: Inhibition of sodium channel (unknown origin) at 10 uM at 4 Hz by patch clamp assay
# [24] = Inhibition of recombinant full length HCV genotype 2b HC-J8 NS3/4A protease preincubated for 30 mins followed by substrate addition measured by FRET assay; design: species or system Hepatitis C virus subtype 2b
# [25] = Cardiotoxicity in rabbit heart assessed as change in sinoatrial node recovery time at 10 uM perfused for 20 mins measured for 1 min by electrophysiology method relative to control; format: toxicity, tissue-based, Oryctolagus cuniculus
# [26] = Cardiotoxicity in anesthetized rabbit assessed as prolongation of QTcf interval at 30 mg/kg, iv administered as 10 mins infusion by electrophysiology assay; format: toxicity, organism-based, Oryctolagus cuniculus; settings: in vivo
# [27] = Drug uptake in rabbit heart atrium measured after 60 mins; format: ADME, Oryctolagus cuniculus, Cardiac atrium; settings: read-out: Drug uptake
# Hepatitis C virus [28] = assay: Antiviral activity against HCV genotype 1a H77 in HCV replicon cells assessed as reduction in viral RNA replication by luciferase reporter gene assay
# Genome polyprotein = Genome polyprotein (GB virus-B, UniProt Q69422); assay: Inhibition of GBV-B NS3 protease
# [29] = Cardiotoxicity in dog assessed as prolongation of QTcf interval at 30 to 100 mg/kg administered as single dose by electrophysiology assay; format: toxicity, organism-based, Canis lupus familiaris; settings: in vivo
# [30] = Inhibition of recombinant full length HCV genotype 4a ED43 NS3/4A protease preincubated for 30 mins followed by substrate addition measured by FRET assay; design: species or system Hepatitis C virus ED43
# [31] = Cytotoxicity against human HuH7 cells assessed as decrease in cell viability
# [32] = Cardiotoxicity in rabbit heart assessed as change in heart rate at 10 uM perfused for 20 mins measured for 1 min by electrophysiology method relative to control; format: toxicity, tissue-based, Oryctolagus cuniculus
# [33] = Cardiotoxicity in dog assessed as effect on heart rate at 30 to 100 mg/kg administered as single dose by electrophysiology assay; format: toxicity, organism-based, Canis lupus familiaris; settings: in vivo
# [34] = AUC in Beagle dog plasma at 3 mg/kg administered via oral gavage measured up to 24 hrs post dose by LC/MS/MS analysis; format: ADME, organism-based, Canis lupus familiaris; design: dose 3 mg/kg, time < 24 hr, route oral
# [35] = Inhibition of recombinant full length HCV genotype 3a S52 NS3 protease in genotype 2a replicon cells by luciferase reporter gene assay; format: cell-based; settings: Hepatitis C virus
# [36] = Inhibition of recombinant full length HCV genotype 2b HC-J8 NS3 protease in genotype 2a replicon cells by luciferase reporter gene assay; format: cell-based, Hepatitis C virus subtype 2b; settings: Hepatitis C virus
# [37] = Toxicity in dog at 20 to 200 mg/kg administered as single dose; format: organism-based, Canis lupus familiaris; settings: in vivo
# [38] = Cardiotoxicity in dog assessed as prolongation of QTcv interval at 30 to 100 mg/kg administered as single dose by electrophysiology assay; format: toxicity, organism-based, Canis lupus familiaris; settings: in vivo
# [39] = Cytotoxicity against human HeLa cells assessed as decrease in cell viability
# Hepatitis C virus [40] = assay: Antiviral activity against HCV genotype 1b Con1 expressing NS3 protease infected in human Huh7.5 cells assessed as reduction in viral RNA replication by luciferase reporter gene assay; format: functional, cell-based, Hepacivirus hominis; settings: genotype 1b Con1, Huh-7
# Sequence of Genome polyprotein (Q69422 941-1564 limits assumed): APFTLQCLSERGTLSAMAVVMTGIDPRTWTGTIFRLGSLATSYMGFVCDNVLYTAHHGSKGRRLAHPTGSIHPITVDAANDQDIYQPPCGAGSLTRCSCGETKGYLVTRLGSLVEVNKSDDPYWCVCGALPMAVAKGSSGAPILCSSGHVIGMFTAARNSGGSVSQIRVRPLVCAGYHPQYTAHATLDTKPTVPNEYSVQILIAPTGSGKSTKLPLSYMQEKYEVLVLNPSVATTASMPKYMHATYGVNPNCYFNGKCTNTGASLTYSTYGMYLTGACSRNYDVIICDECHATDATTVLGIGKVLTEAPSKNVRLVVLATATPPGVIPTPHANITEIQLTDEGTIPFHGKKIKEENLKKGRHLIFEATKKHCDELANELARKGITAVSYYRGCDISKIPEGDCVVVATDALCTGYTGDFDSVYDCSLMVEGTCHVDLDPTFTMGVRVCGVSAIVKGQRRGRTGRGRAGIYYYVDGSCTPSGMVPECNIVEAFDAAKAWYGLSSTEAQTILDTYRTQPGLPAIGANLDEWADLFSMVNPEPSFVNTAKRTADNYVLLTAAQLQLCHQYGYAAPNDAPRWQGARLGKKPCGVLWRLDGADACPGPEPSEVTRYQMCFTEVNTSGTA
compound,measurement,setting,value
COc1cnc(O[C@@H]2C[C@@H](C(=O)N[C@]3(C(=O)NS(=O)(=O)C4CC4)C[C@H]3C3CC3)N(C(=O)[C@@H](NC(=O)O[C@H](C)C(F)(F)F)C3CCCCC3)C2)c2cc(Cl)ccc12,Activity,[1],Non-Toxic
same,Activity,[2],Non-Toxic
same,IC50,[3],1400 nM
same,half-life,[4],65 min
same,Activity,[5],Non-Toxic
same,bioavailability,[6],57.5%
same,concentration at 1 h,[7],253 µM
same,Activity,Salmonella typhimurium,Non-Toxic
same,IC50,[8],1.5 nM
same,half-life,[9],366 min
same,AUC at 24 h,[10],4.4 µM·h
same,Activity,[11],Non-Toxic
same,half-life,[12],306 min
same,Activity,[13],-16%
same,CC50,[14],8 to 14 µM
same,EC50,[15],2.8 nM
same,Activity,Rattus norvegicus,Non-Toxic
same,IC50,[16],38 nM
same,half-life,[17],516 min
same,IC50,[18],3.4 nM
same,bioavailability,[19],15.4%
same,IC50,[20],1.6 nM
same,EC50,Hepatitis C virus [21],136 nM
same,clearance,[22],9.4 mL/min/kg
same,Activity,[23],22%
same,inhibition,Homo sapiens,46.4%
same,IC50,[24],220 nM
same,Activity,[25],-3%
same,Activity,[26],Toxic
same,concentration at 1 h,[27],204 µM
same,EC50,Hepatitis C virus [28],4.5 nM
same,IC50,Genome polyprotein,> 25 µM
same,Activity,[29],Non-Toxic
same,IC50,[30],6 nM
same,CC50,[31],8 to 14 µM
same,Activity,[32],-11%
same,Activity,[33],Non-Toxic
same,AUC at 24 h,[34],8.3 µM·h
same,EC50,[35],1650 nM
same,EC50,[36],562 nM
same,Activity,[37],Non-Toxic
same,Activity,[38],Non-Toxic
same,CC50,[39],8 to 14 µM
same,EC50,Hepatitis C virus [40],4.5 nM
